# Data reported in patent US3959077A (priority 1972, dated 1976).
# Like-named read-outs stand apart in the source and are kept apart here.
# What was measured:
# [1] = system: binding enzyme exhibiting Na-K-ATPase activity; assay: enzymatic isotope displacement assay: displacement of H^3 ouabain from the binding enzyme; set-up: species or system guinea pig; settings: 0, 2.5, 5, 10, 20 Ng (or ug of digitalis leaf) per 50 μl; FIG. 4
# Experimental: The serum extract and aqueous buffered mixtures having known concentrations of cardiac glycosides (hereinafter referred to as standard samples) are incubated with aqueous buffered mixtures containing the novel binding enzyme of the present invention in the presence of radioactive isotope cardiac glycoside, magnesium and sodium ions, ATP a buffering agent and optionally, but preferably, a heavy metal chelating agent. It is preferably that potassium be eliminated from the reagents to optimize the sensitivity of the assay. Ten microliters of the extract are sufficient for the incubation, although smaller and larger amounts may be employed. The binding enzyme is prepared by reacting a binding enzyme precursor or binding material (described below) with a high energy phosphate compound such as adenosine triphosphate (ATP), adenosine diphosphate (ADP), guanosine triphosphate (GTP), guanosine diphosphate (GDP) and the like. The reaction is preferably conducted in the presence of magnesium and/or sodium, preferably both. The reaction is conveniently carried out in the incubation or displacement step reaction mixture. About 4 to 100 micromoles of the high energy phosphate compound are reacted with each amount of the binding enzyme precursor prepared from one gram of animal tissue; although lesser or greater amounts of a high energy phosphate compound may be used. […]
# In the above assay, the binding enzyme binds tritiated ouabain in the presence of Na and Mg. […] After centrifugation, the unbound H^3 ouabain in the supernatant fraction is counted by liquid scintillation and compared with known counts for standard concentrations of digoxin. An increase in supernatant radioactivity indicates uptake of digoxin or other cardiac glycoside at the expense of tritiated ouabain. […]
# A solution of 250,000 Ng (nanograms) of digoxin per ml of methanol is gravimetrically prepared. […] 50ul of each supernatant is then counted by liquid scintillation. […]
# [2] = cited from earlier work
# clinical = assay type: in vivo, human
# Experimental: A person was admitted to this center 3 hours after having ingested 100 tablets of 0.1mg of digitoxin. They had vomited once. Physical examination was unrevealing. […] The P-R interval was 0.24 seconds. Serum was obtained for assay, urine collection was begun, and vigorous gastric lavage was instituted.
# Apparent serum digitoxin on admission was 51.0 Ng/ml, a value close to that of another patient whose atrial fibrillation was under satisfactory control on digitoxin 0.1mg/day. […] The results from both the serum and gastric material were in the hands of ward personnel within 3 hours.
# On the basis of this assay information, especially the findings from the gastric material, it was decided by those caring for the patient that they might just have passed the stage where serum levels were highest. Since they were not severe, and since only mild AV block was present, it was felt that they might do well subsequently without further intervention. They were carefully watched, and in fact recovered without further therapy. […]. Four control urine specimens and six specimens at gastric contents from persons not receiving any digitalis gave negative results.
# antibody = settings: cited from earlier work
# [3] = cited from earlier work; remark: listed apart in the source
# [4] = serum cardiac glycoside levels in patients, measured with the present assay; assay type: in vivo, human; settings: 21 patients with arrhythmias on digoxin therapy; serum drawn at least 6 hours after last dose
# Experimental: Digoxin is extracted from patient serum or from plasma as follows: 5ml of serum or plasma is shaken for 30 seconds with 30ml of Chloroform in a 40ml glass-stoppered conical centrifuge tube, and centrifuged for 2 minutes at 1800 rpm (750 × g at tip). The milky top layer and fatty plug are removed with a teflon-tipped aspirator. The bottom chloroform layer is decanted into another 40ml centrifuge tube and evaporated to dryness in 3 to 5 minutes on a Buchler Evapomixer at 60°C. under vacuum. The digoxin thus extracted is rinsed down to the bottom of the tube with 1ml of ethyl ether and evaporated to dryness in a 50°C. water bath under a stream of filtered air.
# . The sample is mixed on a Vari-whirl vortex mixer for 20 seconds at full speed and centrifuged for 3 minutes at 1800 rpm. The top toluene layer is removed with a narrow, drawn-out pasteur pipet, and discarded. Duplicate 50μl tris aliquots of the bottom tris layer are then assayed in the same manner as for the standards described in Example 3. No quench correction is required. Only raw 1 or 2 minute counts need be used and the counts of duplicate aliquots are averaged. The amount of digoxin found in each aliquot is obtained by comparison with that day's standard curve.
# Serum digoxin levels were measured in 83 nontoxic patients on the medical wards of the Los Angeles County-University of Southern California Medical Center. […]
Structure (SMILES),displaced H^3 ouabain from the enzyme (potency) [1],reported therapeutic serum levels relative to those of digoxin [2] [times],"cardiac glycosides in gastric lavage material, equivalent of digitoxin (clinical; aliquot of 4 liters of lavage material) [µg/mL]","concentration at 3 h (clinical; human, in vivo, po, 3 hours after ingestion of 100 tablets of 0.1 mg, read-out: apparent serum digitoxin on admission) [ng/mL]","concentration at 24 h (clinical; human, in vivo, po, first subsequent day, read-out: subsequent daily serum digitoxin level) [ng/mL]","concentration at 48 h (clinical; human, in vivo, po, second subsequent day, read-out: subsequent daily serum digitoxin level) [ng/mL]","concentration at 24 h (clinical; human, in vivo, po, spot urine, first of the two days after admission, read-out: apparent digitoxin concentration in urine) [ng/mL]","concentration at 48 h (clinical; human, in vivo, po, spot urine, second of the two days after admission, read-out: apparent digitoxin concentration in urine) [ng/mL]","concentration at 72 h (clinical; human, in vivo, po, third subsequent day, read-out: subsequent daily serum digitoxin level) [ng/mL]",amount removed by lavage (clinical; of the 10 mg ingested) [mg],specificity of the immunoassay for digoxin over digitoxin (antibody) [fold],"average toxic level by immunoassay (antibody; toxic patients, serum digoxin) [ng/mL]",Risk of Arrhythmias ([3]; 1.4 nanograms per ml of blood serum),Risk of Arrhythmias ([3]; 2 nanograms per ml of blood serum),Risk of Arrhythmias ([3]; 2.9 nanograms per ml of blood serum),Risk of Arrhythmias ([3]; 4 nanograms per ml of blood serum),Risk of Arrhythmias ([3]; 5 nanograms per ml of blood serum),average serum level (1 S.D.) [4] [ng/mL]
C[C@@H]1O[C@@H](O[C@H]2C[C@@H](O)[C@]3(CO)[C@H]4[C@H](O)C[C@]5(C)[C@@H](C6=CC(=O)OC6)CC[C@]5(O)[C@@H]4CC[C@]3(O)C2)[C@H](O)[C@H](O)[C@H]1O [ouabain],approximately equal potency,,,,,,,,,,,,,,,,,
C[C@H]1O[C@@H](O[C@H]2[C@@H](O)C[C@H](O[C@H]3[C@@H](O)C[C@H](O[C@H]4CC[C@@]5(C)[C@H](CC[C@@H]6[C@@H]5CC[C@]5(C)[C@@H](C7=CC(=O)OC7)CC[C@]65O)C4)O[C@@H]3C)O[C@@H]2C)C[C@H](O)[C@@H]1O [digitoxin],approximately equal potency,10 to 20,1.2,51,41,31.6,848,512,24.4,4.8,,,,,,,,
C[C@H]1O[C@@H](O[C@H]2[C@@H](O)C[C@H](O[C@H]3[C@@H](O)C[C@H](O[C@H]4CC[C@@]5(C)[C@H](CC[C@@H]6[C@@H]5C[C@@H](O)[C@]5(C)[C@@H](C7=CC(=O)OC7)CC[C@]65O)C4)O[C@@H]3C)O[C@@H]2C)C[C@H](O)[C@@H]1O [digoxin],approximately equal potency,,,,,,,,,,10,3.3 ± 1.5,about 10%,about 25%,about 50%,about 66%,about 80%,3.10 ± 0.76
